The results in this text go back to ChEMBL document CHEMBL3046467, “Structure-activity relationship of carboxin-related carboxamides as fungicide” (2011).

Format in all cases: functional
Experiment [1] concerns Botrytis cinerea. Nature of the experiment: Fungicidal activity against Botryotinia fuckeliana spores inoculated on leaves of compound pre-treated seed-leaf stage kidney beans assessed as gray mold disease control level at 62.5 ppm measured after 4 days post fungal inoculation.
For experiment [2], the system named is Pyricularia grisea. Nature of the experiment: Fungicidal activity against Magnaporthe grisea spores inoculated on leaves of compound pre-treated 2 or 3 leaf-stage rice plants assessed as rice blast disease control level at 250 ppm measured after 7 days post fungal inoculation.
In experiment [3] the test system is Podosphaera xanthii. Nature of the experiment: Fungicidal activity against Podosphaera xanthii (powdery mildew) spores inoculated on leaves of compound pre-treated 1.5 leaf-stage cucumber plants assessed as powdery mildew disease control level at 25 ppm measured after 7 days post fungal inoculation.
For experiment [4], the system named is Podosphaera xanthii. Nature of the experiment: Fungicidal activity against Podosphaera xanthii (powdery mildew) spores inoculated on leaves of compound pre-treated 1.5 leaf-stage cucumber plants assessed as powdery mildew disease control level at 250 ppm measured after 7 days post fungal inoculation.
The subject of experiment [5] is Pyricularia grisea. Nature of the experiment: Fungicidal activity against Magnaporthe grisea spores inoculated on leaves of compound pre-treated 2 or 3 leaf-stage rice plants assessed as rice blast disease control level at 50 ppm measured after 7 days post fungal inoculation.
Experiment [6] deals with Puccinia recondita. Nature of the experiment: Fungicidal activity against Puccinia recondita spores inoculated on leaves of compound pre-treated 1.5 leaf-stage wheat plants assessed as wheat brown rust disease control level at 25 ppm measured after 8 days post fungal inoculation.
Experiment [7] deals with Puccinia recondita. Nature of the experiment: Fungicidal activity against Puccinia recondita spores inoculated on leaves of compound pre-treated 1.5 leaf-stage wheat plants assessed as wheat brown rust disease control level at 250 ppm measured after 8 days post fungal inoculation.
Experiment [8] has as its system Botrytis cinerea. Nature of the experiment: Fungicidal activity against Botryotinia fuckeliana spores inoculated on leaves of compound pre-treated seed-leaf stage kidney beans assessed as gray mold disease control level at 500 ppm measured after 4 days post fungal inoculation.

In the case of `Cc1nc(C(F)(F)F)c(C(=O)Nc2ccccc2-c2ccccc2)s1`, the Activity result is recorded as “>=95%” in experiment [1], “>=95%” in experiment [2] and “>=50%” in experiment [3].

Take `Cc1nc(C)c(C(=O)Nc2ccccc2-c2ccccc2)s1`: the Activity entry was “>=95%” in experiment [4], “>=50%” in experiment [1] and less than 95% in experiment [2].

Regarding `O=C(Nc1ccccc1-c1ccccc1)c1ccccc1Cl`, the Activity in experiment [4] was less than 95%; in experiment [1] it was “>=95%”; in experiment [2], less than 95%.

For `Cc1nn(C)cc1C(=O)Nc1ccsc1C(C)CC(C)C` (stereo not given), the Activity result in experiment [4] is listed as “>=95%”; in experiment [5] it was “>=50%”; in experiment [1], “>=95%”; in experiment [6] it was “>=95%”.

`Cc1nc(C)c(C(=O)Nc2ccsc2C(C)CC(C)C)s1` (stereo not given): the Activity result was “>=95%” in experiment [5], “>=95%” in experiment [1], “>=95%” in experiment [6] and “>=50%” in experiment [3].

For `CC(C)CC(C)c1sccc1NC(=O)c1cn(C)nc1C(F)(F)F` (stereo not given) [PENTHIOPYRAD], the Activity result in experiment [5], in experiment [1], in experiment [6] and in experiment [3] was “>=95%” throughout.

`CC1=C(C(=O)Nc2ccccc2-c2ccccc2)SCCO1`: the Activity entry was “>=95%” in experiment [1], less than 95% in experiment [2], less than 95% in experiment [7] and “>=50%” in experiment [3].

For the molecule `CC1CC(C)(C)c2cccc(NC(=O)c3cn(C)nc3C(F)(F)F)c21` (stereo not given), the Activity is given as less than 95% in experiment [4], “>=95%” in experiment [1], less than 95% in experiment [2] and “>=95%” in experiment [6].

Consider `CC(C)CC(C)c1sccc1NC(=O)c1ccccc1Cl` (stereo not given), for which the Activity in experiment [2] was less than 95%; in experiment [8], “>=95%”; in experiment [6], “>=95%”; in experiment [3], “>=50%”.

Take `CC(C)c1ccccc1NC(=O)c1cn(C)nc1C(F)(F)F`: the Activity result in experiment [4] is recorded as “>=95%”; in experiment [1], “>=95%”; in experiment [2], less than 95%; in experiment [6], “>=95%”.

In the case of `CC(C)CC(C)c1ccccc1NC(=O)c1cn(C)nc1C(F)(F)F` (stereo not given), the Activity result in experiment [5], in experiment [1], in experiment [6] and in experiment [3] was “>=95%” each time.

Regarding `CCCCC(C)c1sccc1NC(=O)c1cn(C)nc1C(F)(F)F` (stereo not given), the Activity result is reported as “>=95%” in experiment [1], “>=95%” in experiment [2], “>=95%” in experiment [6] and “>=50%” in experiment [3].

With `CC(CC(C)(C)C)c1sccc1NC(=O)c1cn(C)nc1C(F)(F)F` (stereo not given), the Activity is less than 95% in experiment [2], less than 95% in experiment [8], “>=95%” in experiment [6] and “>=95%” in experiment [3].

In the case of `CC(C)CC(C)c1sccc1NC(=O)c1nccnc1Cl` (stereo not given), the Activity in experiment [4] is recorded as less than 95%; in experiment [1] it was “>=95%”; in experiment [2] it was “>=95%”; in experiment [6], “>=95%”.

For the molecule `CC1=C(C(=O)Nc2ccsc2C(C)CC(C)C)CCCO1` (stereo not given), the Activity entry in experiment [5] was “>=95%”; in experiment [1], “>=95%”; in experiment [6] it was “>=95%”; in experiment [3], “>=50%”.

As for `Cc1nc(C(F)F)c(C(=O)Nc2ccccc2-c2ccccc2)s1`, the Activity result in experiment [1] is reported as “>=95%”; in experiment [2], “>=95%”; in experiment [7] it was less than 95%; in experiment [3] it was “>=50%”.

As to `CC1=C(C(=O)Nc2ccccc2-c2ccccc2)CCCO1`, the Activity result in experiment [1] was “>=50%”; in experiment [2], less than 95%; in experiment [6] it was “>=50%”; in experiment [3] it was “>=95%”.

Take `CC(C)CC(C)c1sccc1NC(=O)c1cccnc1Cl` (stereo not given): the Activity entry is on record as “>=50%” in experiment [1] and “>=95%” in experiment [3].

For the molecule `Cc1occc1C(=O)Nc1ccsc1C(C)CC(C)C` (stereo not given), the Activity result in experiment [5], in experiment [1], in experiment [6] and in experiment [3] was “>=95%” in each case.

As for `O=C(Nc1ccccc1-c1ccccc1)c1cccnc1Cl`, the results for the Activity in experiment [4], in experiment [1] and in experiment [2] were less than 95%, “>=50%” and less than 95%, respectively.

Regarding `CCC(C)c1sccc1NC(=O)c1cn(C)nc1C(F)(F)F` (stereo not given), the Activity result in experiment [1] was “>=95%”; in experiment [2] it was less than 95%; in experiment [6] it was “>=95%”; in experiment [3], “>=50%”.

For the molecule `Cc1occc1C(=O)Nc1ccccc1-c1ccccc1`, the Activity was less than 95% in experiment [4], “>=95%” in experiment [1], “>=95%” in experiment [2] and “>=95%” in experiment [7].

On to `Cc1nc(C(F)(F)F)c(C(=O)Nc2ccsc2C(C)CC(C)C)s1` (stereo not given), for which the Activity result in experiment [1], in experiment [6] and in experiment [3] was “>=95%” throughout.

Regarding `CC(C)CC(C)c1sccc1NC(=O)c1cn(C)nc1C(F)F` (stereo not given), the Activity entry in experiment [5], in experiment [1], in experiment [6] and in experiment [3] was “>=95%” in each case.

Regarding `CCC(C)CC(C)c1sccc1NC(=O)c1cn(C)nc1C(F)(F)F` (stereo not given), the Activity result in experiment [5] was “>=95%”; in experiment [1] it was “>=50%”; in experiment [6], “>=95%”; in experiment [3], “>=95%”.

In the case of `Cc1ccsc1C(=O)Nc1ccccc1-c1ccccc1`, the Activity entry in experiment [4] was “>=95%”; in experiment [1], “>=95%”; in experiment [2], less than 95%; in experiment [7], less than 95%.

With `Cc1nn(C)cc1C(=O)Nc1ccccc1-c1ccccc1`, the Activity in experiment [4] was less than 95%; in experiment [1], “>=50%”; in experiment [2], less than 95%.

Turning to `Cn1cc(C(=O)Nc2ccccc2-c2ccccc2)c(C(F)(F)F)n1`, the Activity result in experiment [1] was “>=95%”; in experiment [2] it was less than 95%; in experiment [7], “>=95%”; in experiment [3], “>=50%”.

As to `O=C(Nc1ccccc1-c1ccccc1)c1nccnc1Cl`, the Activity entry in experiment [4] is reported as “>=95%”; in experiment [1], “>=95%”; in experiment [2], less than 95%; in experiment [7], less than 95%.

As to `CC1=C(C(=O)Nc2ccsc2C(C)CC(C)C)SCCO1` (stereo not given), the Activity result in experiment [4], in experiment [1], in experiment [2] and in experiment [6] was “>=95%” throughout.

As to `CC(C)c1sccc1NC(=O)c1cn(C)nc1C(F)(F)F`, the Activity entry in experiment [4] is reported as “>=95%”; in experiment [1], “>=95%”; in experiment [2] it was less than 95%; in experiment [6] it was “>=95%”.

`CCCCCC(C)c1sccc1NC(=O)c1cn(C)nc1C(F)(F)F` (stereo not given): the Activity result in experiment [1] is “>=50%”; in experiment [2] it was less than 95%; in experiment [6] it was “>=95%”; in experiment [3], “>=50%”.

Regarding `Cc1nc(C(F)F)c(C(=O)Nc2ccsc2C(C)CC(C)C)s1` (stereo not given), the Activity entry in experiment [5], in experiment [1], in experiment [6] and in experiment [3] was “>=95%” in each case.

Turning to `CC1CC(C)(C)c2cccc(NC(=O)c3cccnc3Cl)c21` (stereo not given), the Activity in experiment [4] was less than 95%; in experiment [1] it was “>=50%”; in experiment [2] it was less than 95%; in experiment [7], less than 95%.

`Cn1cc(C(=O)Nc2ccsc2-c2ccccc2)c(C(F)(F)F)n1`: the Activity entry is on record as “>=95%” in experiment [1], less than 95% in experiment [2], less than 95% in experiment [7] and “>=50%” in experiment [3].

As to `CC(C)CC(C)c1sccc1NC(=O)c1cn(C)nc1Cl` (stereo not given), the Activity entry is given as “>=50%” in experiment [5], “>=95%” in experiment [1], “>=95%” in experiment [6] and “>=50%” in experiment [3].

Turning to `CC(C)CCc1sccc1NC(=O)c1cn(C)nc1C(F)(F)F`, the Activity entry is “>=95%” in experiment [1], “>=95%” in experiment [6] and “>=50%” in experiment [3].

In the case of `CCc1sccc1NC(=O)c1cn(C)nc1C(F)(F)F`, in experiment [8], the Activity entry is reported as “>=95%”.

Take `Cc1ccsc1C(=O)Nc1ccsc1C(C)CC(C)C` (stereo not given): the Activity entry in experiment [5], in experiment [1], in experiment [6] and in experiment [3] was “>=95%” each time.

Take `CCC(C)c1ccccc1NC(=O)c1cn(C)nc1C(F)(F)F` (stereo not given): the Activity result is reported as “>=95%” in experiment [1], less than 95% in experiment [2], “>=95%” in experiment [6] and “>=50%” in experiment [3].

For the molecule `CCC(CC)c1sccc1NC(=O)c1cn(C)nc1C(F)(F)F`, the Activity in experiment [4] is recorded as less than 95%; in experiment [1] it was “>=95%”; in experiment [2] it was less than 95%; in experiment [6], “>=50%”.

Regarding `CCC(C)C(C)c1sccc1NC(=O)c1cn(C)nc1C(F)(F)F` (stereo not given), the Activity result in experiment [5] is recorded as “>=50%”; in experiment [1], “>=95%”; in experiment [6], “>=95%”; in experiment [3], “>=95%”.

`CCCC(C)c1sccc1NC(=O)c1cn(C)nc1C(F)(F)F` (stereo not given): the Activity entry in experiment [1] is given as “>=95%”; in experiment [2] it was less than 95%; in experiment [6], “>=95%”; in experiment [3], “>=95%”.
